{"source": "patent US9464128B2", "about": "“Site-specific pegylated linear salmon calcitonin analogues” (INSTITUTE OF PHARMACOLOGY AND TOXICOLOGY ACADEMY OF …, priority 2007, dated 2016)", "key": {"female Wistar rats [1]": {"system": "female Wistar rats", "test": "Long-acting performance study: bone density of lumbar vertebrae, femur and tibia in castrated rats", "type": "in vivo, rat", "settings": "for Bone density, lumbar vertebrae / Bone density, tibia / Bone density, femur: 12th week, n = 10; for influence on bone density of lumbar vertebrae (in words): 12 weeks, high dose group of compound 12, positive contrast sCT group", "protocol": "(§1) 60 female Wistar rats, body weight 250-280 g, 16 weeks aged, were randomly divided into six groups: pseudo-castrated contrast group (10 rats); castrated contrast group (10 rats); calcitonin group (10 rats, twice every week, 0.036 μg/kg body weight/time); a low dose group of compound 12 (10 rats, twice every week, 0.216 μg/kg body weight/time); a high dose group of compound (10 rats, twice every week, 1.08 μg/kg body weight/time); and a high dose group of compound (10 rats, once every week, 1.08 μg/kg body weight/time). In each of the groups, the administration was given subcutaneously. During the experiment, the rats in each of the groups freely fed on standard solid forage and drank water. Except for the high dose group of compound 12 with administration once every week, blood samples were respectively taken from the orbits of the rats in other groups at the 6th week of administration, and subjected to the determination of osteocalcin, serum calcium and alkaline phosphatase (Table 2). At the end of the 12th week of administration, in addition to osteocalcin, serum calcium and alkaline phosphatase (Table 3), the bone densities of lumbar vertebrae, tibia and femur in the rats of each of the groups were determined (Table 4)."}, "female Wistar rats [2]": {"system": "female Wistar rats", "test": "Long-acting performance study: bone metabolism (alkaline phosphatase, serum calcium, osteocalcin) in castrated rats", "type": "in vivo, rat", "settings": "for Alkaline phosphatase / Osteocalcin / Serum calcium: n = 10", "protocol": "as §1"}, "rats [3]": {"system": "rats", "test": "Calcium-reducing activity, subcutaneous injection to abdomens of rats (blood calcium determination)", "type": "in vivo, rat", "protocol": "The calcium-reducing activity of sCT(L)s and their PEGylated analogues was determined by administering them to abdomens of rats via subcutaneous injection, according to the method described in the literature (cf. Qian Deming, Shen Genquan, Ke Ruolun; Biological Assay of Calcitonin by Blood Calcium Determination in Rats, CHINESE JOURNAL OF PHARMACEUTICAL ANALYSIS, 1994, 14(3): 30-34).\nThe activity results as determined were listed as follows, while the reference activity of salmon calcitonin being 4500 IU/mg."}, "[4]": {"settings": "kidney homogenate; cited from earlier work"}, "rats [5]": {"system": "rats", "settings": "reference standard; cited from earlier work"}, "[6]": {"settings": "high dose 1.08 μg/kg s.c. once/week"}, "[7]": {"settings": "high dose 1.08 μg/kg s.c. twice/week"}, "[8]": {"settings": "low dose 0.216 μg/kg s.c. twice/week"}, "[9]": {"settings": "6th week, high dose 1.08 μg/kg s.c. twice every week"}, "[10]": {"settings": "6th week, low dose 0.216 μg/kg s.c. twice every week"}, "[11]": {"settings": "12th week, high dose 1.08 μg/kg s.c. twice every week"}, "[12]": {"settings": "12th week, low dose 0.216 μg/kg s.c. twice every week"}, "[13]": {"settings": "6th week, 0.036 μg/kg s.c. twice every week"}, "[14]": {"settings": "12th week, 0.036 μg/kg s.c. twice every week"}}, "data": [{"substance": "[D-Ala^1,Cys^7(mPEG5000-MAL),D-Ala^30]sCT [Compound 12]", "values": [{"measurement": "Bone density, lumbar vertebrae", "setting": "female Wistar rats [1]; [6]", "result": "0.182 ± 0.014", "unit": "g/cm^2"}, {"measurement": "Bone density, tibia", "setting": "female Wistar rats [1]; [6]", "result": "0.251 ± 0.015", "unit": "g/cm^2"}, {"measurement": "Bone density, femur", "setting": "female Wistar rats [1]; [7]", "result": "0.241 ± 0.017", "unit": "g/cm^2"}, {"measurement": "Bone density, lumbar vertebrae", "setting": "female Wistar rats [1]; [7]", "result": "0.181 ± 0.018", "unit": "g/cm^2"}, {"measurement": "Bone density, tibia", "setting": "female Wistar rats [1]; [7]", "result": "0.256 ± 0.017", "unit": "g/cm^2"}, {"measurement": "Bone density, femur", "setting": "female Wistar rats [1]; [8]", "result": "0.240 ± 0.028", "unit": "g/cm^2"}, {"measurement": "Bone density, lumbar vertebrae", "setting": "female Wistar rats [1]; [8]", "result": "0.175 ± 0.021", "unit": "g/cm^2"}, {"measurement": "Bone density, tibia", "setting": "female Wistar rats [1]; [8]", "result": "0.245 ± 0.014", "unit": "g/cm^2"}, {"measurement": "influence on bone density of lumbar vertebrae (in words)", "setting": "female Wistar rats [1]", "result": "increased the bone density of lumbar vertebrae"}, {"measurement": "Alkaline phosphatase", "setting": "female Wistar rats [2]; [9]", "result": "180.0 ± 19.4", "unit": "u/100 ml"}, {"measurement": "Osteocalcin", "setting": "female Wistar rats [2]; [9]", "result": "3.81 ± 0.24", "unit": "ng/100 ml"}, {"measurement": "Serum calcium", "setting": "female Wistar rats [2]; [9]", "result": "9.2 ± 0.2", "unit": "mg/100 ml"}, {"measurement": "Alkaline phosphatase", "setting": "female Wistar rats [2]; [10]", "result": "187.0 ± 30.4", "unit": "u/100 ml"}, {"measurement": "Osteocalcin", "setting": "female Wistar rats [2]; [10]", "result": "3.77 ± 0.25", "unit": "ng/100 ml"}, {"measurement": "Serum calcium", "setting": "female Wistar rats [2]; [10]", "result": "9.8 ± 0.3", "unit": "mg/100 ml"}, {"measurement": "Alkaline phosphatase", "setting": "female Wistar rats [2]; [11]", "result": "188.2 ± 51.2", "unit": "u/100 ml"}, {"measurement": "Osteocalcin", "setting": "female Wistar rats [2]; [11]", "result": "3.95 ± 0.24", "unit": "ng/100 ml"}, {"measurement": "Serum calcium", "setting": "female Wistar rats [2]; [11]", "result": "9.4 ± 0.4", "unit": "mg/100 ml"}, {"measurement": "Alkaline phosphatase", "setting": "female Wistar rats [2]; [12]", "result": "202.4 ± 44.8", "unit": "u/100 ml"}, {"measurement": "Osteocalcin", "setting": "female Wistar rats [2]; [12]", "result": "4.01 ± 0.25", "unit": "ng/100 ml"}, {"measurement": "Serum calcium", "setting": "female Wistar rats [2]; [12]", "result": "9.8 ± 0.3", "unit": "mg/100 ml"}, {"measurement": "influence on bone metabolism of rats compared with sCT group (in words)", "setting": "female Wistar rats [2]; high dose group, 6th and 12th weeks of administration", "result": "substantially equivalent to the positive contrast sCT group"}, {"measurement": "Activity (calcium-reducing activity)", "setting": "rats [3]", "result": 1467, "unit": "IU/mg"}]}, {"substance": "[D-Ala^1,Cys^7,D-Ala^30]sCT [Compound 1]", "values": [{"measurement": "Activity (calcium-reducing activity)", "setting": "rats [3]", "result": 5202, "unit": "IU/mg"}]}, {"substance": "[Val^1, Ala^7, Cys^16(mPEG5000-MAL), Des-19-22, Ala^30]sCT [Compound 14]", "values": [{"measurement": "Activity (calcium-reducing activity)", "setting": "rats [3]", "result": 987, "unit": "IU/mg"}]}, {"substance": "[Val^1, Ala^7, Cys^19(mPEG5000-MAL),Des-20-22, Ala^30]sCT [Compound 21]", "values": [{"measurement": "Activity (calcium-reducing activity)", "setting": "rats [3]", "result": 1208, "unit": "IU/mg"}]}, {"substance": "[Val^1, Cys^7(mPEG5000-MAL),Des-19-22, Ala^30]sCT [Compound 16]", "values": [{"measurement": "Activity (calcium-reducing activity)", "setting": "rats [3]", "result": 717, "unit": "IU/mg"}]}, {"substance": "[Val^1,Ala^7,Cys^16,Ala^30,Des-19-22]sCT [Compound 3]", "values": [{"measurement": "Activity (calcium-reducing activity)", "setting": "rats [3]", "result": 3394, "unit": "IU/mg"}]}, {"substance": "[Val^1,Ala^7,Cys^19(mPEG5000-MAL),Des-20-21, Ala^30]sCT [Compound 22]", "values": [{"measurement": "Activity (calcium-reducing activity)", "setting": "rats [3]", "result": 1707, "unit": "IU/mg"}]}, {"substance": "[Val^1,Ala^7,Cys^19,Ala^30,Des-20-21]sCT [Compound 11]", "values": [{"measurement": "Activity (calcium-reducing activity)", "setting": "rats [3]", "result": 379, "unit": "IU/mg"}]}, {"substance": "[Val^1,Ala^7,Cys^19,Ala^30,Des-20-22]sCT [Compound 10]", "values": [{"measurement": "Activity (calcium-reducing activity)", "setting": "rats [3]", "result": 892, "unit": "IU/mg"}]}, {"substance": "[Val^1,Ala^7,Gln^11,18,Cys^16(mPEG5000-MAL),Des-19-22,Ala^30]sCT [Compound 15]", "values": [{"measurement": "Activity (calcium-reducing activity)", "setting": "rats [3]", "result": 301, "unit": "IU/mg"}]}, {"substance": "[Val^1,Ala^7,Gln^11,18,Cys^16,Ala^30,Des-19-22]sCT [Compound 4]", "values": [{"measurement": "Activity (calcium-reducing activity)", "setting": "rats [3]", "result": 807, "unit": "IU/mg"}]}, {"substance": "[Val^1,Cys^7(mPEG5000-MAL), Gln^11,18,Des-19-22,Ala^30]sCT [Compound 20]", "values": [{"measurement": "Activity (calcium-reducing activity)", "setting": "rats [3]", "result": 1265, "unit": "IU/mg"}]}, {"substance": "[Val^1,Cys^7(mPEG5000-MAL), Gln^11,Des-19-22, Ala^30]sCT [Compound 19]", "values": [{"measurement": "Activity (calcium-reducing activity)", "setting": "rats [3]", "result": 815, "unit": "IU/mg"}]}, {"substance": "[Val^1,Cys^7(mPEG5000-MAL), Gln^18,Des-19-22, Ala^30]sCT [Compound 18]", "values": [{"measurement": "Activity (calcium-reducing activity)", "setting": "rats [3]", "result": 763, "unit": "IU/mg"}]}, {"substance": "[Val^1,Cys^7(mPEG5000-MAL),Des-19,Ala^30]sCT [Compound 13]", "values": [{"measurement": "Activity (calcium-reducing activity)", "setting": "rats [3]", "result": 438, "unit": "IU/mg"}]}, {"substance": "[Val^1,Cys^7(mPEG5000-MAL),Des-19,Ala^30]sCT [Compound 17]", "values": [{"measurement": "Activity (calcium-reducing activity)", "setting": "rats [3]", "result": 1921, "unit": "IU/mg"}]}, {"substance": "[Val^1,Cys^7,Ala^30,Des-19]sCT [Compound 6]", "values": [{"measurement": "Activity (calcium-reducing activity)", "setting": "rats [3]", "result": 4347, "unit": "IU/mg"}]}, {"substance": "[Val^1,Cys^7,Des-19,Ala^30]sCT [Compound 2]", "values": [{"measurement": "Activity (calcium-reducing activity)", "setting": "rats [3]", "result": 1136, "unit": "IU/mg"}]}, {"substance": "[Val^1,Cys^7,Des-19-22,Ala^30]sCT [Compound 5]", "values": [{"measurement": "Activity (calcium-reducing activity)", "setting": "rats [3]", "result": 67, "unit": "IU/mg"}]}, {"substance": "[Val^1,Cys^7,Gln^11,18,Ala^30,Des-19-22]sCT [Compound 9]", "values": [{"measurement": "Activity (calcium-reducing activity)", "setting": "rats [3]", "result": 920, "unit": "IU/mg"}]}, {"substance": "[Val^1,Cys^7,Gln^11,Ala^30,Des-19-22]sCT [Compound 8]", "values": [{"measurement": "Activity (calcium-reducing activity)", "setting": "rats [3]", "result": 344, "unit": "IU/mg"}]}, {"substance": "[Val^1,Cys^7,Gln^18,Ala^30,Des-19-22]sCT [Compound 7]", "values": [{"measurement": "Activity (calcium-reducing activity)", "setting": "rats [3]", "result": 233, "unit": "IU/mg"}]}, {"substance": "salmon calcitonin [reference compound]", "values": [{"measurement": "metabolic half life", "setting": "[4]", "result": 4.8, "unit": "min"}, {"measurement": "Bone density, femur", "setting": "female Wistar rats [1]; 0.036 μg/kg s.c. twice/week", "result": "0.242 ± 0.027", "unit": "g/cm^2"}, {"measurement": "Bone density, lumbar vertebrae", "setting": "female Wistar rats [1]; 0.036 μg/kg s.c. twice/week", "result": "0.181 ± 0.013", "unit": "g/cm^2"}, {"measurement": "Bone density, tibia", "setting": "female Wistar rats [1]; 0.036 μg/kg s.c. twice/week", "result": "0.247 ± 0.127", "unit": "g/cm^2"}, {"measurement": "influence on bone density of lumbar vertebrae (in words)", "setting": "female Wistar rats [1]", "result": "increased the bone density of lumbar vertebrae"}, {"measurement": "Alkaline phosphatase", "setting": "female Wistar rats [2]; [13]", "result": "179.8 ± 31.4", "unit": "u/100 ml"}, {"measurement": "Osteocalcin", "setting": "female Wistar rats [2]; [13]", "result": "3.90 ± 1.1", "unit": "ng/100 ml"}, {"measurement": "Serum calcium", "setting": "female Wistar rats [2]; [13]", "result": "9.3 ± 0.2", "unit": "mg/100 ml"}, {"measurement": "Alkaline phosphatase", "setting": "female Wistar rats [2]; [14]", "result": "200.9 ± 40.1", "unit": "u/100 ml"}, {"measurement": "Osteocalcin", "setting": "female Wistar rats [2]; [14]", "result": "3.38 ± 0.17", "unit": "ng/100 ml"}, {"measurement": "Serum calcium", "setting": "female Wistar rats [2]; [14]", "result": "9.3 ± 0.2", "unit": "mg/100 ml"}, {"measurement": "reference activity of salmon calcitonin", "setting": "rats [5]", "result": 4500, "unit": "IU/mg"}]}]}
